Experimental data as given in US8703188B1, “Dispersible tablet” (Azanta A/S, priority 2012, dated 2014).
Values after ≈ are worked out from the molar mass of the structure shown.

Columns and labels:
[1] = Solubility of Nimorazole in water; assay type: physicochemical
[2] = The Merck Index, 14th Edition; cited from earlier work

solubility [1]: 4910 µg/mL (≈ 21.7 mM)
SMILES: O=[N+]([O-])c1cncn1CCN1CCOCC1 [Nimorazole]
solubility in water [2]: slightly soluble
